Measured values taken from PMC6697583 (Cancer research, 2019).

Molecular target: T1, heme oxygenase 1 (HO-1) (Homo sapiens, UniProt P09601)
T1 sequence (P09601 1-288): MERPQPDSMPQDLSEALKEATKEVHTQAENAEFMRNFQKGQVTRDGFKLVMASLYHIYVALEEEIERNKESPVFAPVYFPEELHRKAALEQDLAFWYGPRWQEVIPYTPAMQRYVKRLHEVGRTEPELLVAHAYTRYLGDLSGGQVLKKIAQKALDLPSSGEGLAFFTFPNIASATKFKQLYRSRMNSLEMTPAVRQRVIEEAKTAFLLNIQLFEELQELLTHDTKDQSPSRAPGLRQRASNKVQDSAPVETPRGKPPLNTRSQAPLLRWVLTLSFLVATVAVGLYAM
Assay: bilirubin fluorescence assay on purified HO-1
Assay type: biochemical

SMILES: Cc1c(O)ccc2c1OC[C@@H](c1ccc(O)cc1)[C@H]2c1ccc(O)cc1 [ME-344, (3R,4S)-3,4-bis(4-hydroxyphenyl)-8-methyl-3,4-dihydro-2H-chromen-7-ol]
- IC50: 17.6 nM
